Experimental data published in US20160109438A1, “PROTEASE-RESPONSIVE PEPTIDE BIOSENSORS AND METHODS FOR ANALYTE DETECTION” (AGENCY FOR SCIENCE, TECHNOLOGY AND RESEARCH, priority 2013, published 2016).

Assays:
HA antibody = assay: Thrombin-HA protease exclusion sensor; assay type: biochemical
Excerpt: An HA-antibody binds to the HA epitope ([…]; SEQ ID NO:3). The Binding of an anti-HA antibody to its epitope would disallow protease, access to its recognition site due to steric obstruction by the higher affinity HA antibody. Addition of excess HA peptide should sequester the HA antibody, leading to renewed protease access to its recognition site, bringing about increased enzyme activity in response to the HA peptide. […] Starting from the left, the rate of substrate turnover is shown after 0 nM, 4 nM, 40 nM, 400 nM and 4000 nM addition of free HA peptide to the tested sensor.

HA antibody / HA epitope = assay: HA-enterokinase sensor assay; assay type: biochemical; details: 0 nM, 4 nM, 40 nM, 400 nM and 4000 nM; enterokinase and HA antibody present
Mdm2 N-terminal domain = Mdm2 N-terminal domain (Homo sapiens, UniProt Q00987); assay: Protease exclusion sensor using fluorescence labeled internally quenched peptide (P1); details: for response of the peptide sensor (rate of fluorescence increase): various concentrations, with enterokinase and Mdm2
Mdm2 = molecular target: T1, Mdm2 (Homo sapiens, UniProt Q00987); assay: Mdm2-enterokinase sensor assay; assay type: biochemical; details: for substrate turnover (time course): sensor with enterokinase and mdm2, compared with DMSO only
T1 construct: derived from N-terminal domain (amino acids 18-125) of wild type Mdm2 protein; 10x His; made in house; host or cells: E. coli
Description: Nutlin was used as the positive control and a mutant p53 peptide, which cannot bind to Mdm2 was used as the negative control. The reaction was monitored using absorbance measurements at OD492 on a Perkin Elmer plate reader every 2 min. The signal was calculated from reading 5 minus reading 3. This assay was repeated three times and the average gradient value with standard error was reported.
The screening was divided into two steps. In the first step, the screening was carried out at the fixed compound concentration of […]. In the second step, a dose-response experiment of different hits found in the first step was conducted. […] The OD492 value of read number 3 was subtracted from that of read number 5 (OD492 readings were taken every 2 min) which was designated as signal. […] Fold change=Gradient of Hits (Reading 5−Reading 3)/Gradient of control (Reading 5−Reading 3)

[1] = molecular target: HA antibody (clone not named, FIG. 3B and FIG. 8B); assay: cell-based or functional assay
[2] = molecular target: T2, Mdm2 N-terminal domain (amino acids 18-125) of wild type Mdm2 protein engineered with 10x His tag (UniProt Q00987 18-125); assay: Mdm2-enterokinase sensor assay, substrate turnover at OD492
T2 construct: range 18-125; expressed in E. coli; also called Mdm2 N-terminus; Mdm2 N terminus
T2 sequence (Q00987 18-125 limits assumed, change not shown): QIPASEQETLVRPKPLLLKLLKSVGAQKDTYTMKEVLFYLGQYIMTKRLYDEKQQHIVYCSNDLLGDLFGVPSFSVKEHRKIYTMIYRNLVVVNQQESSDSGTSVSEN

Mdm2 N-terminal domain, sequence (Q00987 18-125): as the sequence (Q00987 18-125 limits assumed, change not shown) above
T1 sequence (Q00987 18-125, species assumed): as the sequence (Q00987 18-125 limits assumed, change not shown) above

HA peptide: free peptide of the influenza hemagglutinin (HA) epitope, sequesters the HA antibody
rate of substrate turnover (HA antibody; thrombin and HA antibody, varying amounts of free peptide): increases with increasing amount | amount of peptide giving the highest substrate turnover (HA antibody; thrombin-HA protease exclusion sensor): 400 nM | substrate turnover after addition of free HA peptide (HA antibody / HA epitope): concentration-dependent increase of substrate turnover

Nutlin
detectable concentrations (Mdm2 N-terminal domain; signal to noise ratio ~5-6x): low micromolar | response of the peptide sensor (rate of fluorescence increase) (Mdm2 N-terminal domain): strong response | substrate turnover (time course) (Mdm2): substrate turnover increases substantially | rate of turnover of substrate in response to various amounts (Mdm2; various amounts of competitor): increased turnover signal

free HA peptide
HA peptide concentration with the highest substrate turnover (thrombin-HA protease exclusion sensor) [1]: 400 nM

ETASDLAKLAP (mutated p53 peptide) [mutant p53 peptide]
response of the peptide sensor (rate of fluorescence increase) (Mdm2 N-terminal domain): not | substrate turnover (time course) (Mdm2): does not lead to increased turnover

O=c1[nH]cc(F)c(=O)[nH]1 [5 FU]
substrate turnover (time course) (Mdm2): does not lead to increased turnover

B1: mutant p53 peptide with critical residues mutated to alanine (ETASDLAKLAP) (peptide)
peptide: ETASDLAKLAP
notes: Synthetic negative control peptide; also called peptide C
binding result [2]: no binding
